Earlier results on one compound are cited in patent US11839654B2, “Combination therapy” (Eli Lilly and Company, priority 2018, dated 2023).

For one data set, the system named is Tg4510 tau mouse model. As to conditions: Graham et al. 2014; cited from earlier work.
A further data set relates to JNPL3 tau mouse model. To be noted: Yuzwa et al. 2012; cited from earlier work.

On to `CCN=C1N[C@@H]2[C@@H](O)[C@H](O)[C@@H](CO)O[C@@H]2S1` [Thiamet-G], for which the “effect on tau pathology and dystrophic neurites” value in the data set on Tg4510 tau mouse model was “reduction in tau pathology and dystrophic neurites”. Also, the “effect on motor neuron loss” value in the data set with JNPL3 tau mouse model is recorded as “slowing motor neuron loss”.
